{
  "source": "the supplement of paper PMC8837787",
  "data": [
    {"system": "Saccharomyces cerevisiae ABC16-Green Monster", "conditions": "18 h; 30 °C; YPD", "method_in_brief": "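IC50 values come from GraphPad Prism fits of log(inhibitor) versus response, with variable slope, applied to background-subtracted optical density. The assay used 96-well plates holding 200 µl per well of log-phase drug-sensitive S. cerevisiae ABC16-Green Monster in YPD. Compound was added as eight 1:2 dilutions spanning final concentrations of 0.1–150 μM, in biological duplicate, and plates were kept at 30 °C for 18 h, with OD600 measured at 0 h and 18 h.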", "units": {"IC50 growth inhibition": "µM"}, "values": [
      {"smiles": "CN1CCCN=C1C=Cc1cccs1.O=C(O)c1cc2ccccc2c(Cc2c(O)c(C(=O)O)cc3ccccc23)c1O", "note": "[Pyrantal Pamoate]", "IC50 growth inhibition": "> 75"},
      {"smiles": "Cc1[nH]c2ccccc2c1C(c1cccs1)N1CCN(C)CC1", "note": "(centres undefined)", "IC50 growth inhibition": 35.9},
      {"smiles": "CNCCC(Oc1ccc(C(F)(F)F)cc1)c1ccccc1", "note": "(centres undefined) [Fluoxetin]", "IC50 growth inhibition": 59.5},
      {"smiles": "CCC(C)(C)c1ccc(OCCOCC[n+]2ccccc2)c(C(C)(C)CC)c1.[Cl-]", "note": "[GNF-Pf-1618]", "IC50 growth inhibition": 2.19},
      {"smiles": "C=CCC1C=C(C)CC(C)CC(OC)C2OC(O)(C(=O)C(=O)N3CCCCC3C(=O)OC(C(C)=CC3CCC(O)C(OC)C3)C(C)C(O)CC1=O)C(C)CC2OC", "note": "(centres undefined) [Tacrolimus/FK-506]", "IC50 growth inhibition": "> 75"},
      {"smiles": "C[C@]1(O)C[C@@H](c2nc(-c3ccc4ccc(-c5ccccc5)nc4c3)c3c(N)nccn32)C1", "note": "[Linsitinib]", "IC50 growth inhibition": 16},
      {"smiles": "O=C1Nc2ccc(F)cc2/C1=N/NC(=S)NC1CC2C=CC1C2", "note": "(centres undefined)", "IC50 growth inhibition": 55.9},
      {"smiles": "C/C=C/[C@H]1O[C@@](O)([C@@H](C)[C@H](O)[C@H](C)[C@H]2OC(=O)/C(OC)=C\\C(C)=C\\[C@@H](C)[C@@H](O)[C@@H](CC)[C@@H](O)[C@H](C)C/C(C)=C/C=C/[C@@H]2OC)C[C@@H](O[C@H]2C[C@@H](O)[C@H](OC(=N)O)[C@@H](C)O2)[C@@H]1C", "note": "[Concanamycin A]", "IC50 growth inhibition": 6.1},
      {"smiles": "Cn1ccnc1CNCCS(=O)(=O)c1cccc(Nc2ccc(-c3cccc(F)c3)cn2)c1", "IC50 growth inhibition": 50.5},
      {"smiles": "c1cc2c(cc1C1=NNC(=NC3CC3)SC1)CCCC2", "IC50 growth inhibition": 50.8},
      {"smiles": "Cc1nc2ccccc2nc1SC(C)C(=O)c1c[nH]c2ccccc12", "note": "(centres undefined)", "IC50 growth inhibition": 33.8},
      {"smiles": "C[C@@H]1COCCN1c1cc(C2(S(C)(=O)=O)CC2)nc(-c2cccc3[nH]ccc23)n1", "note": "[AZ-20]", "IC50 growth inhibition": "> 75"},
      {"smiles": "CC(C)(C)c1ccc(NC(=O)c2ccc[nH]c2=S)cc1", "IC50 growth inhibition": 25.4},
      {"smiles": "Cc1cc(=O)nc(N/N=C/c2cc(C)n(CC(F)(F)F)c2C)[nH]1", "IC50 growth inhibition": 81.9},
      {"smiles": "CC(c1cc(Cl)cc(Cl)c1)N(C)c1ncc2c(N)nc(N)nc2n1", "note": "(centres undefined)", "IC50 growth inhibition": 40.1},
      {"smiles": "Cn1ncc2c(NCc3ccc(-c4ccc(Cl)cc4)o3)ncnc21", "IC50 growth inhibition": 61.9},
      {"smiles": "CC(=O)N(C1=C(N2CCOCC2)C(=O)c2ccccc2C1=O)c1ccc(I)cc1", "note": "[GNF-Pf-3703]", "IC50 growth inhibition": 7.31},
      {"smiles": "O=C(c1c[nH]c(-c2ccnc(N3CCCC3)c2)c1)c1ccccc1O", "IC50 growth inhibition": 60.6},
      {"smiles": "O=C(Nc1cccc(C(F)(F)F)c1)c1cc(Cl)ccc1O", "IC50 growth inhibition": 4.18},
      {"smiles": "Cc1[nH]c2ccccc2c(=O)c1CC=C(Cl)Cl", "note": "[GNF-Pf-4439]", "IC50 growth inhibition": "> 150"},
      {"smiles": "Cc1ccc(C2Sc3ccccc3N=C3C2=C(O)c2ccccc23)cc1", "note": "(centres undefined) [GNF-Pf-5468]", "IC50 growth inhibition": 4.95},
      {"smiles": "Cc1cc(NC(C)C)n2ncc(-c3ccc(F)cc3)c2n1", "IC50 growth inhibition": 90.7},
      {"smiles": "CC(Oc1ccc(Cl)cc1Cl)c1nc(-c2ccc(NC(=O)c3cccs3)cc2)no1", "note": "(centres undefined) [GNF-Pf-2823]", "IC50 growth inhibition": 3.9},
      {"smiles": "CC(=O)OCC1OC([S-])C(OC(C)=O)C(OC(C)=O)C1OC(C)=O.CCP(CC)CC", "note": "(centres undefined) [Auranofin]", "IC50 growth inhibition": 27.4},
      {"smiles": "CN(C)c1oc(-c2ccc(Cl)cc2Cl)nc1[P+](c1ccccc1)(c1ccccc1)c1ccccc1", "note": "[GNF-Pf-2545]", "IC50 growth inhibition": 4.53},
      {"smiles": "CNC1CCC(c2ccc(Cl)c(Cl)c2)c2ccccc21.Cl", "note": "(centres undefined) [Sertraline]", "IC50 growth inhibition": 13.4},
      {"smiles": "C=C1CCC(O)CC1=CC=C1CCCC2(C)C1CCC2C(C)CCCC(C)(C)O", "note": "(centres undefined) [Calcifediol]", "IC50 growth inhibition": "> 150"},
      {"smiles": "c1csc(-c2cnc3sc(NCC4CCOCC4)nn23)c1", "IC50 growth inhibition": 2.98},
      {"smiles": "N=C(N)c1ccc(OCCCCCOc2ccc(C(=N)N)cc2)cc1", "note": "[Pentamidine]", "IC50 growth inhibition": 85.9},
      {"smiles": "CC[C@H]1OC(=O)[C@H](C)[C@@H](O[C@H]2C[C@@](C)(OC)[C@@H](O)[C@H](C)O2)[C@H](C)[C@@H](O[C@@H]2O[C@H](C)C[C@H](N(C)C)[C@H]2O)[C@](C)(O)C[C@@H](C)C(=O)[C@H](C)[C@@H](O)[C@]1(C)O", "note": "[Erythromycin]", "IC50 growth inhibition": "> 75"},
      {"smiles": "CCCCCN(C)CCC(O)(P(=O)([O-])O)P(=O)(O)O.[Na+]", "note": "[Ibandronate]", "IC50 growth inhibition": "> 75"},
      {"smiles": "Cc1nc2ncnn2c(N2CCc3ccccc3C2)c1Cl", "IC50 growth inhibition": 84.8},
      {"smiles": "COCCNc1cc(C(C)C)nc2c(-c3ccccc3)cnn12", "IC50 growth inhibition": 52.6},
      {"smiles": "COc1ccc(Cn2cnc3c(-c4ccco4)nc(Cl)nc32)cc1", "IC50 growth inhibition": 51.6},
      {"smiles": "N#CC(c1ccc(Cl)cc1)c1c(Cl)cc(-n2ncc(=O)[nH]c2=O)cc1Cl", "note": "(centres undefined) [Diclazuril]", "IC50 growth inhibition": 68.5},
      {"smiles": "OC1=C2C(=Nc3ccccc3SC2c2cccs2)c2ccccc21", "note": "(centres undefined) [GNF-Pf-5669]", "IC50 growth inhibition": "> 150"},
      {"smiles": "CN(C)CCNc1nc2sc3c(c2c(=O)n1Cc1ccco1)CCCCC3", "IC50 growth inhibition": 32.5},
      {"smiles": "CC[C@@H]([C@H](C)O)n1ncn(-c2ccc(N3CCN(c4ccc(OC[C@@H]5CO[C@@](Cn6cncn6)(c6ccc(F)cc6F)C5)cc4)CC3)cc2)c1=O", "IC50 growth inhibition": 50},
      {"smiles": "Cc1cc(C)n(-c2ccc3c(Cl)cc(Cl)c(O)c3n2)n1", "IC50 growth inhibition": 71.3},
      {"smiles": "CC[P](CC)(CC)=[Au][S][C@H]1O[C@@H](COC(C)=O)[C@H](OC(C)=O)[C@@H](OC(C)=O)[C@@H]1OC(C)=O", "IC50 growth inhibition": 28.2},
      {"smiles": "CN(Cc1ccc(Cl)s1)C(=O)Cn1ncc(Br)c(Br)c1=O", "IC50 growth inhibition": 24.2},
      {"smiles": "N=C(N)Nc1ccc(-c2ccc(-c3ccc(NC(=N)N)cc3Cl)o2)c(Cl)c1", "IC50 growth inhibition": 44.5},
      {"smiles": "CCc1ccc(Nc2cc(C)c3ccc(O)cc3n2)cc1", "IC50 growth inhibition": 2.09},
      {"smiles": "O=C(O)[C@]1(Cc2cccc(Nc3nccs3)n2)CC[C@@H](Oc2cccc(Cl)c2F)CC1", "note": "[MK-5108]", "IC50 growth inhibition": "> 75"},
      {"smiles": "CCC1C=CC=CCC(C)C(O)C(C)(O)C(=O)C(C)C(O)C(C)C(=O)C(C)C(O)C(C)C=CC(=O)OC2C(C)C(CC1)OC1(CCC(C)C(CC(C)O)O1)C2C", "note": "(centres undefined) [Oligomycin]", "IC50 growth inhibition": "> 75"},
      {"smiles": "CN(C)C(=N)N=C(N)N", "note": "[Metformin]", "IC50 growth inhibition": "> 75"},
      {"smiles": "Cc1ccc(S(=O)(=O)n2cc(-c3ccnc(N)c3)c3cc(Br)cnc32)cc1", "IC50 growth inhibition": 6.17},
      {"smiles": "N#CC(C#N)=NNc1cc(Cl)cc(Cl)c1", "IC50 growth inhibition": 20.6},
      {"smiles": "CN(C(=O)c1cc2c(-c3cncnc3)cccc2[nH]1)c1ccccc1", "IC50 growth inhibition": 26.3},
      {"smiles": "CCCCCCC(O)(c1ccc(F)cc1)C(CN1CCOCC1)c1ccccc1", "note": "(centres undefined)", "IC50 growth inhibition": 17.3},
      {"smiles": "Cc1cc(C(=O)Cn2nnc3ccccc3c2=O)c(C)n1-c1ccccc1F", "IC50 growth inhibition": 20.5},
      {"smiles": "Cc1cc(NC(=O)C(C)C)n(-c2nc(C)c(C)c(=O)[nH]2)n1", "IC50 growth inhibition": 3.87},
      {"smiles": "Cc1nc(NC(=O)c2csc(NC3CCCC3)n2)sc1C", "IC50 growth inhibition": 12.4},
      {"smiles": "CCC1(O)C(=O)OCc2c1cc1n(c2=O)Cc2cc3c(CN(C)C)c(O)ccc3nc2-1", "note": "(centres undefined) [Topotecan]", "IC50 growth inhibition": "> 75"},
      {"smiles": "Brc1cncc(-c2cc(NCCCn3ccnc3)nc(-c3ccccc3)n2)c1", "IC50 growth inhibition": 23.9},
      {"smiles": "COC1=CC(=O)CC(C)C12Oc1c(Cl)c(OC)cc(OC)c1C2=O", "note": "(centres undefined) [Griseofulvin]", "IC50 growth inhibition": "> 75"},
      {"smiles": "c1ccc(CSc2scnc2[P+](c2ccccc2)(c2ccccc2)c2ccccc2)cc1", "note": "[GNF-Pf-238]", "IC50 growth inhibition": 4.06},
      {"smiles": "O=C(CC1NCCCC1O)Cn1cnc2ccccc2c1=O", "note": "(centres undefined) [Febrifugine]", "IC50 growth inhibition": "> 75"},
      {"smiles": "Nc1ncnc2c1ncn2CC(O)C(O)C(=O)O", "note": "(centres undefined) [Eritadenine]", "IC50 growth inhibition": "> 75"}
    ]}
  ]
}
